Experimental data as given in patent publication US11987648B2, “Cyclohexapeptides as selective somatostatin SST5 receptor agonists” (Heptares Therapeutics Limited, priority 2018, dated 2024).
pEC50: −log10 of the molar value. Like-named read-outs stand apart in the source and are kept apart here. *1 amine or outer side, *2 acyl side, *3 side chain or, on linkers, in order; H or OH if unused. Where a SMILES comes first, the peptide text is derived from it. Side-chain parts run from the residue outwards. [ ]: non-standard residue; d: D form. The star is where a group is joined. Ala(piperidin-4-yl) = O=C([C@H](CC1CCN([*:3])CC1)N[*:1])[*:2]; dTrp(5-OMe) = COc1ccc2[nH]cc(C[C@@H](N)C(=O)O)c2c1; dTrp(4-Me) = Cc1cccc2[nH]cc(C[C@@H](N)C(=O)O)c12; dTrp(5-Me) = Cc1ccc2[nH]cc(C[C@@H](N)C(=O)O)c2c1; Ala(piperazin-1-yl) = N[C@@H](CN1CCNCC1)C(=O)O; Phe(3-Br) = N[C@@H](Cc1cccc(Br)c1)C(=O)O; Phe(3-Cl) = N[C@@H](Cc1cccc(Cl)c1)C(=O)O; Phe(3-OMe) = COc1cccc(C[C@H](N)C(=O)O)c1; Phe(4-Cl) = N[C@@H](Cc1ccc(Cl)cc1)C(=O)O; Ethylenediamine = C(CN[*:2])N[*:1]; d(hPhe) = N[C@H](CCc1ccccc1)C(=O)O; Hyp = O=C(O)[C@@H]1C[C@@H](O)CN1; hPhe = N[C@@H](CCc1ccccc1)C(=O)O; 3Pal = N[C@@H](Cc1cccnc1)C(=O)O; Tic = O=C(O)[C@@H]1Cc2ccccc2CN1; Benzyl(4-Cl) = Clc1ccc(C*)cc1; Phg = N[C@H](C(=O)O)c1ccccc1; CO = O=C([*:1])[*:2]; Bn = c1ccc(C*)cc1

How the values were obtained:
[1] = molecular target: SST5 (Homo sapiens, UniProt P35346); assay: Hit Hunter cAMP XS+ assay, SST5 activation via Gi (reduction of forskolin-stimulated cAMP); type: cell-based; conditions: for Emax: read-out: SST5 (EMax); for SST5/2 Selectivity: selectivity for SST5 over SST2; for EC50: reduction of forskolin-stimulated cAMP, 4-parameter logistic fit, read-out: SST5 pEC50 (converted)
Description: (§1) A Hit Hunter® cAMP XS+ assay was used to monitor activation of the SST2 and SST5 via the Gi G protein. Cells were pre-stimulated with forskolin to elicit a cAMP response and the potency and efficacy of somatostatin agonists to reduce cAMP was measured. Briefly cells (10,000 cells/well) were incubated (37° C.; 30 min) with compound ([…]) in media (2:1 HBSS/11 mM Hepes: cAMP XS+Ab reagent) in the presence of EC80 forskolin ([…] and 15 μM SST5). Signal was detected through incubation with 20 μL cAMP XS+ED/CL lysis cocktail ([…]; RT) followed by incubation with […] cAMP XS+EA reagent (180 min; RT). Microplates were read with a PerkinElmer Envision™ instrument for chemiluminescent signal detection.

[2] = molecular target: SST2 (Homo sapiens, UniProt P30874); assay: Hit Hunter cAMP XS+ assay, SST2 activation via Gi (reduction of forskolin-stimulated cAMP); type: cell-based; conditions: for Emax: read-out: SST2 (EMax); for EC50: reduction of forskolin-stimulated cAMP, 4-parameter logistic fit, read-out: SST2 pEC50 (converted)
Description: as §1

Sequence of SST2 (P30874 whole entry): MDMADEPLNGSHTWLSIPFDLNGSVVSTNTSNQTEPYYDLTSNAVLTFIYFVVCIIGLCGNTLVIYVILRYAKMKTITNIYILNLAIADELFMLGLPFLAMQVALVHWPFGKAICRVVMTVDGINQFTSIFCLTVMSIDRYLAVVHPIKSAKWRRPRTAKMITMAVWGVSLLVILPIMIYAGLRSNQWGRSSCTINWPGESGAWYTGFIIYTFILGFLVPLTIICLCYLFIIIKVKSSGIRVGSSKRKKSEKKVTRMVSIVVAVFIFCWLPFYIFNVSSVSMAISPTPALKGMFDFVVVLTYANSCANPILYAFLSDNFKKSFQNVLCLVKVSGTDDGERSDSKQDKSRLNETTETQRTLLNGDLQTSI
Sequence of SST5 (P35346 whole entry): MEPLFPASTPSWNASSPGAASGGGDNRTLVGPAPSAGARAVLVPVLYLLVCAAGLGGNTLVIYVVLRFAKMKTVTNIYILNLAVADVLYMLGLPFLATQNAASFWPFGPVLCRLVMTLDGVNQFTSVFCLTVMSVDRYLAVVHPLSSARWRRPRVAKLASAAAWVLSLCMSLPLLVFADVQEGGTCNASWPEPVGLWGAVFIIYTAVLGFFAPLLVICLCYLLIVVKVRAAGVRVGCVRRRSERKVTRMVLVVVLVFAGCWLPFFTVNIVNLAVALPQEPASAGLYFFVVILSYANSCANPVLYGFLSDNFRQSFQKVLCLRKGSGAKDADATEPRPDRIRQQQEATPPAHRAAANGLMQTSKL

Row | Compound | pEC50 [1] | Emax [1] [%] | SST5/2 Selectivity [1] | pEC50 [2] | Emax [2] [%] | EC50 [1] [nM] | EC50 [2] [nM]
1 | NCCNC(=O)O[C@@H]1C[C@H]2C(=O)N[C@@H](c3ccccc3)C(=O)N[C@H](Cc3c[nH]c4ccccc34)C(=O)N[C@@H](CC3CCNCC3)C(=O)N[C@@H](Cc3ccc(OCc4ccccc4)cc3)C(=O)N[C@@H](Cc3ccccc3)C(=O)N2C1 [Example 1] (cyclo(F[Hyp]([CO-Ethylenediamine])[Phg][dW][Ala(piperidin-4-yl)]Y(Bn))) | 7.60 | 98.6 | 130.7 | 5.50 | 62 | – | –
2 | NCCNC(=O)O[C@@H]1C[C@H]2C(=O)N[C@@H](Cc3ccccc3)C(=O)N[C@H](Cc3c[nH]c4ccccc34)C(=O)N[C@@H](CC3CCNCC3)C(=O)N[C@@H](Cc3ccc(OCc4ccccc4)cc3)C(=O)N[C@@H](Cc3ccccc3)C(=O)N2C1 [Example 2] (cyclo(F[Hyp]([CO-Ethylenediamine])F[dW][Ala(piperidin-4-yl)]Y(Bn))) | 7.70 | 105 | 21.9 | 6.40 | 96.4 | – | –
3 | NCCNC(=O)O[C@@H]1C[C@H]2C(=O)N[C@@H](CCc3ccccc3)C(=O)N[C@H](Cc3c[nH]c4ccccc34)C(=O)N[C@@H](CC3CCNCC3)C(=O)N[C@@H](Cc3ccc(OCc4ccccc4)cc3)C(=O)N[C@@H](Cc3cccnc3)C(=O)N2C1 [Example 3] (cyclo([3Pal][Hyp]([CO-Ethylenediamine])[hPhe][dW][Ala(piperidin-4-yl)]Y(Bn))) | 9.10 | 100 | 236.7 | 6.70 | 98.4 | – | –
4 | Cc1cccc2[nH]cc(C[C@H]3NC(=O)[C@H](c4ccccc4)NC(=O)[C@@H]4C[C@@H](OC(=O)NCCN)CN4C(=O)[C@H](Cc4ccccc4)NC(=O)[C@H](Cc4ccc(OCc5ccccc5)cc4)NC(=O)[C@H](CC4CCNCC4)NC3=O)c12 [Example 4] (cyclo(F[Hyp]([CO-Ethylenediamine])[Phg][dTrp(4-Me)][Ala(piperidin-4-yl)]Y(Bn))) | 7.90 | 105 | 23.6 | 6.60 | 103 | – | –
5 | COc1ccc2[nH]cc(C[C@H]3NC(=O)[C@H](c4ccccc4)NC(=O)[C@@H]4C[C@@H](OC(=O)NCCN)CN4C(=O)[C@H](Cc4ccccc4)NC(=O)[C@H](Cc4ccc(OCc5ccccc5)cc4)NC(=O)[C@H](CC4CCNCC4)NC3=O)c2c1 [Example 5] (cyclo(F[Hyp]([CO-Ethylenediamine])[Phg][dTrp(5-OMe)][Ala(piperidin-4-yl)]Y(Bn))) | – | 98.7 | 33.8 | – | 97.6 | 10 | 316
6 | NCCNC(=O)O[C@@H]1C[C@H]2C(=O)N[C@@H](c3ccccc3)C(=O)N[C@H](Cc3c[nH]c4ccccc34)C(=O)N[C@@H](CC3CCNCC3)C(=O)N[C@@H](Cc3ccc(OCc4ccc(Cl)cc4)cc3)C(=O)N[C@@H](Cc3ccccc3)C(=O)N2C1 [Example 6] (cyclo(F[Hyp]([CO-Ethylenediamine])[Phg][dW][Ala(piperidin-4-yl)]Y(Benzyl(4-Cl)))) | – | 97.9 | 41.9 | – | 97.9 | 1.26 | 50.1
7 | NCCNC(=O)O[C@@H]1C[C@H]2C(=O)N[C@@H](c3ccccc3)C(=O)N[C@H](Cc3c[nH]c4ccccc34)C(=O)N[C@@H](CC3CCNCC3)C(=O)N[C@@H](Cc3ccc(OCc4ccccc4)cc3)C(=O)N[C@@H](Cc3cccc(Cl)c3)C(=O)N2C1 [Example 7] (cyclo([Hyp]([CO-Ethylenediamine])[Phg][dW][Ala(piperidin-4-yl)]Y(Bn)[Phe(3-Cl)])) | – | 102 | 19.3 | – | 99.2 | 0.501 | 10
8 | NCCNC(=O)O[C@@H]1C[C@H]2C(=O)N[C@@H](c3ccccc3)C(=O)N[C@H](Cc3c[nH]c4ccccc34)C(=O)N[C@@H](CC3CCNCC3)C(=O)N[C@@H](Cc3ccc(OCc4ccccc4)cc3)C(=O)N[C@@H](Cc3ccc(Cl)cc3)C(=O)N2C1 [Example 8] (cyclo([Hyp]([CO-Ethylenediamine])[Phg][dW][Ala(piperidin-4-yl)]Y(Bn)[Phe(4-Cl)])) | – | 102 | 22.7 | – | 101 | 1.26 | 31.6
9 | COc1ccc(C[C@@H]2NC(=O)[C@H](Cc3ccc(OCc4ccccc4)cc3)NC(=O)[C@H](CC3CCNCC3)NC(=O)[C@@H](Cc3c[nH]c4ccccc34)NC(=O)[C@H](c3ccccc3)NC(=O)[C@@H]3C[C@@H](OC(=O)NCCN)CN3C2=O)cc1 [Example 9] (cyclo([Hyp]([CO-Ethylenediamine])[Phg][dW][Ala(piperidin-4-yl)]Y(Bn)Y(Me))) | – | 106 | 23.3 | – | 102 | 2.51 | 50.1
10 | NCCNC(=O)O[C@@H]1C[C@H]2C(=O)N[C@@H](c3ccccc3)C(=O)N[C@H](Cc3c[nH]c4ccccc34)C(=O)N[C@@H](CC3CCNCC3)C(=O)N[C@@H](Cc3ccc(OCc4ccccc4)cc3)C(=O)N[C@@H](Cc3cccc(Br)c3)C(=O)N2C1 [Example 10] (cyclo([Hyp]([CO-Ethylenediamine])[Phg][dW][Ala(piperidin-4-yl)]Y(Bn)[Phe(3-Br)])) | – | 98 | 38.9 | – | 101 | 0.501 | 20
11 | NCCNC(=O)O[C@@H]1C[C@H]2C(=O)N[C@@H](c3ccccc3)C(=O)N[C@H](Cc3c[nH]c4ccccc34)C(=O)N[C@@H](CC3CCNCC3)C(=O)N[C@@H](Cc3ccc(OCc4ccccc4)cc3)C(=O)N[C@@H](Cc3cccnc3)C(=O)N2C1 [Example 11] (cyclo([3Pal][Hyp]([CO-Ethylenediamine])[Phg][dW][Ala(piperidin-4-yl)]Y(Bn))) | – | 99.4 | 48.2 | – | 98 | 3.98 | 200
12 | COc1cccc(C[C@@H]2NC(=O)[C@H](Cc3ccc(OCc4ccccc4)cc3)NC(=O)[C@H](CC3CCNCC3)NC(=O)[C@@H](Cc3c[nH]c4ccccc34)NC(=O)[C@H](c3ccccc3)NC(=O)[C@@H]3C[C@@H](OC(=O)NCCN)CN3C2=O)c1 [Example 12] (cyclo([Hyp]([CO-Ethylenediamine])[Phg][dW][Ala(piperidin-4-yl)]Y(Bn)[Phe(3-OMe)])) | – | 98.1 | 26.1 | – | 97.6 | 0.794 | 20
13 | Cc1ccc2[nH]cc(C[C@H]3NC(=O)[C@H](c4ccccc4)NC(=O)[C@@H]4C[C@@H](OC(=O)NCCN)CN4C(=O)[C@H](Cc4ccccc4)NC(=O)[C@H](Cc4ccc(OCc5ccccc5)cc4)NC(=O)[C@H](CC4CCNCC4)NC3=O)c2c1 [Example 13] (cyclo(F[Hyp]([CO-Ethylenediamine])[Phg][dTrp(5-Me)][Ala(piperidin-4-yl)]Y(Bn))) | – | 98.7 | 87.2 | – | 97.6 | 2.51 | 200
14 | NCCNC(=O)O[C@@H]1C[C@H]2C(=O)N[C@@H](CCc3ccccc3)C(=O)N[C@H](Cc3c[nH]c4ccccc34)C(=O)N[C@@H](CN3CCNCC3)C(=O)N[C@@H](Cc3ccc(OCc4ccccc4)cc3)C(=O)N[C@@H](Cc3cccnc3)C(=O)N2C1 [Example 14] (cyclo([3Pal][Hyp]([CO-Ethylenediamine])[hPhe][dW][Ala(piperazin-1-yl)]Y(Bn))) | – | 96.7 | 1876.8 | – | 99.6 | 0.0794 | 158
15 | NCCNC(=O)O[C@@H]1C[C@H]2C(=O)N[C@H](CCc3ccccc3)C(=O)N[C@H](Cc3c[nH]c4ccccc34)C(=O)N[C@@H](CC3CCNCC3)C(=O)N[C@@H](Cc3ccc(OCc4ccccc4)cc3)C(=O)N[C@@H](Cc3cccnc3)C(=O)N2C1 [Example 15] (cyclo([3Pal][Hyp]([CO-Ethylenediamine])[d(hPhe)][dW][Ala(piperidin-4-yl)]Y(Bn))) | – | 101 | 531.3 | – | 55.5 | 20 | > 10000
16 | NCCNC(=O)O[C@@H]1C[C@H]2C(=O)N[C@H](CCc3ccccc3)C(=O)N[C@H](Cc3c[nH]c4ccccc34)C(=O)N[C@@H](CN3CCNCC3)C(=O)N[C@@H](Cc3ccc(OCc4ccccc4)cc3)C(=O)N[C@@H](Cc3cccnc3)C(=O)N2C1 [Example 16] (cyclo([3Pal][Hyp]([CO-Ethylenediamine])[d(hPhe)][dW][Ala(piperazin-1-yl)]Y(Bn))) | – | 100 | 2729.5 | – | 79.5 | 3.98 | > 10000
17 | NCCNC(=O)O[C@@H]1C[C@H]2C(=O)N[C@@H](CCc3ccccc3)C(=O)N[C@H](Cc3c[nH]c4ccccc34)C(=O)N[C@@H](CC3CCNCC3)C(=O)N[C@@H](Cc3ccc(OCc4ccccc4)cc3)C(=O)N3Cc4ccccc4C[C@H]3C(=O)N2C1 [Example 17] (cyclo([Hyp]([CO-Ethylenediamine])[hPhe][dW][Ala(piperidin-4-yl)]Y(Bn)[Tic])) | – | 104 | 789.4 | – | 97.3 | 0.501 | 398
18 | C[C@@H](O)[C@@H]1NC(=O)[C@H](CCCCN)NC(=O)[C@@H](Cc2c[nH]c3ccccc23)NC(=O)[C@H](Cc2ccccc2)NC(=O)[C@@H](NC(=O)[C@H](N)Cc2ccccc2)CSSC[C@@H](C(=O)N[C@H](CO)[C@@H](C)O)NC1=O [Octreotide] | – | – | – | – | 98.5 | – | –
